These are literature values, as cited in patent publication US20050180917A1, “Delivery of neutron capture elements for neutron capture therapy” (priority 2001, published 2005).

For data set [1] the following is noted: in vivo.
For data set [2] the following is noted: review of prior art.

Turning to `N[C@@H](Cc1ccc(B(O)O)cc1)C(=O)O` [BPA, 4-dihydroxyborylphenylalanine], the Absolute tumour concentration in data set [1] is 16.5 µg/g. Besides, the toxicity entry in data set [2] is listed as “low toxicity”.

Turning to “sodium mercaptoundecahydrododecaborate [BSH]”, the Absolute tumour concentration in data set [1] was 6.9 µg/g. In data set [2], the toxicity entry was “low toxicity”.
